Test results reported in US12150996B2, “Polymeric prodrugs and subcutaneous and/or intramuscular administration thereof” (priority 2017, dated 2024).

Columns and labels:
[1] = system: SC tissue; test: SC toxicity at the injection site (Example 10)
Experimental: The same studies were carried out with a polymer according to the invention coupled with Cyanine 5.5.

[2] = Pharmacokinetics and biodistribution of radiolabelled PTX; settings: mice, liver, kidneys, spleen, lungs; radiolabel
Experimental: 7 week old female BALB/c OlaHsd mice (˜22 g; Envigo, France) were used. […] Each group consisted of 40 mice divided into 10 different times (0.25 h, 0.5 h, 1 h, 2 h, 4 h, 7 h, 24 h, 48 h, 96 h and 144 h) leading to 4 mice per group. […] Livers, kidneys, spleens, lungs and some SC tissue at the injection site were also collected. All the samples were stored in a freezer (−20° C.) for a maximum of one week before analysis. For the radioactivity count, approximately 100 μl of plasma and 100 mg of each organ/tissue were removed and weighed with precision. The organs were first dissolved by adding 1 ml of soluble solution (PerkinElmer, USA) and the samples were placed overnight in an oven at 60° C. They were then whitewashed by twice adding 100 μL of 30% H2O2 (weight/volume) and heated for 30 min at 60° C. in an oven. Finally, the treated plasma and organ samples were mixed with Hionic-FluorUltimagold (PerkinElmer, USA) and the radioactivity was measured with a versatile LS 6500 scintillation counter (Beckman Coulter).
Pharmacokinetic and biodistribution studies were also conducted for the polyacrylamide compound containing paclitaxel. Paclitaxel was radiolabelled and coupled to the polymer by an ester link (stable link) so that it could be followed in the blood and in various organs (liver, lungs, kidneys, spleen, SC tissue). […]

CC(=O)O[C@H]1C(=O)[C@@]2(C)[C@H]([C@H](OC(=O)c3ccccc3)[C@]3(O)C[C@H](OC(=O)[C@H](O)[C@@H](NC(=O)c4ccccc4)c4ccccc4)C(C)=C1C3(C)C)[C@]1(OC(C)=O)CO[C@@H]1C[C@@H]2O [paclitaxel]
Toxicity at the injection site ([1]; SC administration at 30 mg/kg (paclitaxel equivalent) once a day for 4 days, FIG. 12): local toxicity effects
Elimination (biodistribution) [2]: predominantly hepatic elimination

Cyanine 5.5
SC toxicity (necrosis of SC tissue) ([1]; in vivo, sc, 0.8 mg/kg): very necrotizing for SC tissue
